Tested on: IS-CD8+ T cells
Assay: Homing of DiI-labeled IS-CD8+ T cells into the pancreatic islets of NOD mice
Type: in vivo
Settings: 24 h
Description: Fluorescent Tracing and Morphometric Analysis—For trafficking studies, IS-CD8^+ T cells were incubated at 1×10^7 cells/ml for 30 min at 37° C. in the dark in complete Click's medium containing 5% fetal calf serum and 0.0075 mg/ml of the fluorescent dye 1,1′-didodecyl-3,3,3′,3′-tetramethylindocarbocyanine perchlorate (DiI; Molecular Probes, Eugene, Oreg.). After incubation, the cells were washed three times with phosphatebuffered saline to remove excess DiI. Labeled IS-CD8^+ cells (1×10^7 cells) were injected intravenously in 0.2 ml of phosphate-buffered saline into irradiated (725 rads, 24 h in advance) NOD mice. Mice were sacrificed 24 h after injection of DiI-labeled cells. The spleen and the pancreata were excised and fixed in 0.1 M periodate-lysine-paraformaldehyde phosphate buffer. The organs were next sucrose-saturated, freeze-molded in OCT compound (Sakura Finetek Inc., Torrance, Calif.), and freeze-sectioned. 7-μm-thick cryostat sections of the entire pancreas were prepared at 60-μm intervals using a Leica CM1900 cryotom. Distribution of DiI-labeled CD8^+ cells within the islets was examined using a fluorescent microscope. At least 100 individual islets per mouse (4-5 mice/experimental group) were examined. The characteristic morphology of the islets is easily identified on the cryosections. DiI-labeled cells were counted within the area relevant to each individual islet (see FIG. 3 for a representative image; the islet-relevant area is depicted by the solid white line, and the islet boundaries are shown by the white dotted line). The position of each IS-CD8^+ labeled cell was determined relative to the islet boundary. The labeled cells localized within the islet boundary were considered to be “inside,” whereas the labeled cells adjacent to the islet but outside of the islet boundary were considered to be “at the entrance.” This method has been described in substantial detail (Savinov, A. Y., et al. (2003), and Savinov, A. Y., et al. (2001), which are herein incorporated by reference in their entirety for their teaching of these methods).
Fluorescent tracing and morphometric analysis—For trafficking studies, IS-CD8^+ T cells were incubated at 1×10^7 cells/ml for 30 min at 37° C. in the dark in the complete Click's medium containing 5% FCS and 0.0075 mg/ml of fluorescent dye 1,1′-didodecyl-3,3,3′,3′-tetramethylindocarbocyanine perchlorate (DiI; Molecular Probes). After incubation, the cells were washed three times with PBS to remove excess DiI. Labeled IS-CD8^+ cells (1×10^7 cells) were intravenously injected in 0.2 ml of PBS into irradiated (725 Rad, 24 h in advance) NOD mice. Mice were sacrificed 24 h after injection of DiI-labeled cells. […] In 24 h, the spleen and the pancreata were excised and fixed in 0.1 M periodate-lysine-paraformaldehyde phosphate buffer. The organs were next sucrose-saturated, freeze-molded in OCT compound (Sakura Finetek Inc.) and freeze-sectioned. 7-μm-thick cryostat sections of the entire pancreas were prepared at the 60 μm intervals using a Leica CM1900 cryotom. Distribution of DiI-labeled CD8^+ cells within the islets was examined using a fluorescent microscope. At least 100 individual islets per mouse, 4-5 mice per each experimental group, were examined. The characteristic morphology of the islets is easily identified on the cryosections. DiI-labeled cells were counted within the area relevant to each individual islet. The position of each IS-CD8^+ labeled cell was determined relative to the islet boundary. […]

## CC1(C)SCCN(S(=O)(=O)c2ccc(Oc3ccncc3)cc2)[C@H]1C(=O)NO [AG3340]
Example 1: cells co-incubated 2 h with AG3340 50 μM before injection
  IS-CD8+ cells found inside the islets: smaller number of cells
Example 2: AG3340 1 mg/kg i.v. 30 min before cells
  reduction in the T cell homing: 50%
Example 3: inhibitor i.p. before cells, SB-3CT and EGCG at much higher concentrations than AG3340
  homing of IS-CD8+ cells inside the islets: several-fold less cells

From US20070203244A1, “INHIBITORS OF MEMBRANE TYPE-1 MATRIX METALLOPROTEINASE FOR THE TREATMENT OF INSULIN-DEPENDENT DIABETES MELLITUS” (priority 2006, published 2007)
